Key:
Bur. cepacia = experiment: Antimicrobial efficacy (European Pharmacopoeia 2000, Chapter 5.1.3); assay type: cell-based
Method: (§1) The antimicrobial efficacy was tested for three different solutions:
(§2) i) α-(2,4-disulfophenyl)-N-tert-butylnitrone disodium salt, 10 mg/ml;
(§3) ii) α-(2,4-disulfophenyl)-N-tert-butylnitrone disodium salt, 400 mg/ml; and
(§4) iii) a carbonate buffer control.
(§5) The tests were performed according to European Pharmacopoeia 2000, Chapter 5.1.3, pages 259 to 260. Seven 10 ml vials were inoculated, one per test organism. During the tests, the vials were stored at controlled room temperature and protected from light. At different time intervals, samples were withdrawn and after appropriate dilutions the numbers of viable microorganisms (colony forming units per ml, CFU/ml) were determined using standard plate count procedures.

A. niger = experiment: as above; assay type: cell-based
Method: as §1, §2, §3, §4, §5

[1] = Effect of concentration on stability, phosphate-buffered solutions at +5° C.; assay type: physicochemical; conditions: 50 mM phosphate buffer
Method: In a third study aqueous solutions of α-(2,4-disulfophenyl)-N-tert-butylnitrone disodium salt (concentration either 200 mg/ml or 400 mg/ml) buffered with phosphate buffer (50 mM) were dispensed into 10 ml glass vials and stored at +5° C.

[2] = Stability of 100 mg/ml aqueous solution with added factors (chelating agent, antioxidant, oxygen removal, pH); assay type: physicochemical
Method: The effects of several added factors were investigated in experiments designed using a multivariate technique. An aqueous solution of α-(2,4-disulfophenyl)-N-tert-butylnitrone disodium salt (100 mg/ml) containing less than 0.3% 2,4-disulphobenzaldehyde disodium salt (II) was placed in sealed 10 ml glass vials with a fill volume of 10 ml. The concentrations of the degradation products and particularly of 2,4-disulphobenzaldehyde disodium salt (II) were measured by a chromatographic method after accelerated storage conditions at +40° C. and 75% relative humidity for two months.
Values are mean±standard deviation. n indicates the number of independent experiments. A t-test was performed to evaluate the significance of the different factors.

## CC(C)(C)[N+]([O-])=Cc1ccc(S(=O)(=O)[O-])cc1S(=O)(=O)[O-].[Na+].[Na+] [α-(2,4-disulfophenyl)-N-tert-butylnitrone disodium salt]
Bur. cepacia; 10 mg/ml, 48 h
  Number of CFUs per ml - Time after Inoculation: <1 CFUs per ml
Bur. cepacia; 10 mg/ml, 7 days
  Number of CFUs per ml - Time after Inoculation: <1 CFUs per ml
Bur. cepacia; 10 mg/ml, 14 days
  Number of CFUs per ml - Time after Inoculation: <1 CFUs per ml
Bur. cepacia; 10 mg/ml, 21 days
  Number of CFUs per ml - Time after Inoculation: <1 CFUs per ml
Bur. cepacia; 10 mg/ml, 28 days
  Number of CFUs per ml - Time after Inoculation: <1 CFUs per ml
Bur. cepacia; 10 mg/ml, <1 min
  Number of CFUs per ml - Time after Inoculation: 3.5 × 10^5 CFUs per ml
Bur. cepacia; 400 mg/ml, 6 h
  Number of CFUs per ml - Time after Inoculation: 8.7 × 10^1 CFUs per ml
Bur. cepacia; 400 mg/ml, 24 h
  Number of CFUs per ml - Time after Inoculation: <1 CFUs per ml
Bur. cepacia; 400 mg/ml, 48 h
  Number of CFUs per ml - Time after Inoculation: <1 CFUs per ml
Bur. cepacia; 400 mg/ml, 7 days
  Number of CFUs per ml - Time after Inoculation: <1 CFUs per ml
Bur. cepacia; 400 mg/ml, 14 days
  Number of CFUs per ml - Time after Inoculation: <1 CFUs per ml
Bur. cepacia; 400 mg/ml, 21 days
  Number of CFUs per ml - Time after Inoculation: <1 CFUs per ml
Bur. cepacia; 400 mg/ml, 28 days
  Number of CFUs per ml - Time after Inoculation: <1 CFUs per ml
Bur. cepacia; 400 mg/ml, <1 min
  Number of CFUs per ml - Time after Inoculation: 1.1 × 10^5 CFUs per ml
Bur. cepacia; 400 mg/ml, within 6 hours
  Reduction in colony forming units per ml (CFU/ml): ≥ 10^3 fold
A. niger; 10 mg/ml, 6 h
  Number of CFUs per ml - Time after Inoculation: 4.5 × 10^4 CFUs per ml
A. niger; 10 mg/ml, 24 h
  Number of CFUs per ml - Time after Inoculation: 5.0 × 10^4 CFUs per ml
A. niger; 10 mg/ml, 48 h
  Number of CFUs per ml - Time after Inoculation: 5.5 × 10^4 CFUs per ml
A. niger; 10 mg/ml, 7 days
  Number of CFUs per ml - Time after Inoculation: 3.0 × 10^4 CFUs per ml
A. niger; 10 mg/ml, 14 days
  Number of CFUs per ml - Time after Inoculation: 1.0 × 10^3 CFUs per ml
A. niger; 10 mg/ml, 21 days
  Number of CFUs per ml - Time after Inoculation: 1.0 × 10^2 CFUs per ml
A. niger; 10 mg/ml, 28 days
  Number of CFUs per ml - Time after Inoculation: ≦10 CFUs per ml
A. niger; 10 mg/ml, <1 min
  Number of CFUs per ml - Time after Inoculation: 5.0 × 10^4 CFUs per ml
A. niger; 400 mg/ml, 6 h
  Number of CFUs per ml - Time after Inoculation: 5.9 × 10^4 CFUs per ml
A. niger; 400 mg/ml, 24 h
  Number of CFUs per ml - Time after Inoculation: 3.4 × 10^4 CFUs per ml
A. niger; 400 mg/ml, 48 h
  Number of CFUs per ml - Time after Inoculation: 1.7 × 10^4 CFUs per ml
A. niger; 400 mg/ml, 7 days
  Number of CFUs per ml - Time after Inoculation: 1.9 × 10^2 CFUs per ml
A. niger; 400 mg/ml, 14 days
  Number of CFUs per ml - Time after Inoculation: <1 CFUs per ml
A. niger; 400 mg/ml, 21 days
  Number of CFUs per ml - Time after Inoculation: <1 CFUs per ml
A. niger; 400 mg/ml, 28 days
  Number of CFUs per ml - Time after Inoculation: <1 CFUs per ml
A. niger; 400 mg/ml, <1 min
  Number of CFUs per ml - Time after Inoculation: 1.0 × 10^5 CFUs per ml
[1]; 200 mg/ml, 0 months
  Amount of Aldehyde (II): 0.1 Area %
  pH: 8.0
[1]; 200 mg/ml, 6 months
  Amount of Aldehyde (II): 0.4 Area %
  pH: 7.9
[1]; 200 mg/ml, 12 months
  Amount of Aldehyde (II): 0.6 Area %
  pH: 7.9
[1]; 200 mg/ml, 18 months
  Amount of Aldehyde (II): 0.7 Area %
  pH: 8.0
[1]; 400 mg/ml, 0 months
  Amount of Aldehyde (II): 0.1 Area %
  pH: 8.0
[1]; 400 mg/ml, 6 months
  Amount of Aldehyde (II): 0.3 Area %
  pH: 7.8
[1]; 400 mg/ml, 12 months
  Amount of Aldehyde (II): 0.4 Area %
  pH: 7.8
[1]; 400 mg/ml, 18 months
  Amount of Aldehyde (II): 0.4 Area %
  pH: 7.9
[2]; 100 mg/ml aqueous solution, before storage
  Initial content of 2,4-disulphobenzaldehyde disodium salt (II): less than 0.3%
[2]; 100 mg/ml, added EDTA, pH 7.0 to 8.8, 2 months +40° C./75% RH
  Final Amount of Aldehyde (II): 2.27 ± 0.12 area %
[2]; 100 mg/ml, added ascorbate, pH 7.0 to 7.3, 2 months +40° C./75% RH
  Final Amount of Aldehyde (II): 1.32 ± 0.11 (p < 0.001) area %
[2]; 100 mg/ml, added factor none, pH 7.0 to 8.2, 2 months +40° C./75% RH
  Final Amount of Aldehyde (II): 2.20 ± 0.11 area %
[2]; 100 mg/ml, nitrogen purge, pH 7.0 to 8.6, 2 months +40° C./75% RH
  Final Amount of Aldehyde (II): 1.34 ± 0.18 (p < 0.001) area %
[2]; pH 7 to 9, 100 mg/ml, 2 months +40° C./75% RH
  Effect of pH on the degree of decomposition: no significant effect

Reference: US20030181527A1, “Novel formulations of alpha-2,4-disulfophenyl-n-tert-butylnitrone” (priority 2000, published 2003)
